# Values joined by “and” are separate entries in the source; they are usually repeats but may differ in a detail not shown here. Identical values can stand only once. Like-named read-outs stand apart in the source and are kept apart here.
# Legend:
# [1] = test system: Staphylococcus aureus strain S14; test: Infected skin wound healing model in mice; assay type: in vivo, C57BL/6 mice
# Procedure: The objective of these trials was to test the efficacy of cloxacillin, at selected doses, in an in vivo model of mouse skin wound infection with strains of Staphylococcus aureus. The in vivo efficacy of specific doses of cloxacillin, derived from the in vitro MIC and MICb doses, was determined by measuring bacterial load (established as a biofilm) at 12 h, Day 5 and Day 11 post-infection, and by measuring wound healing at Day 5 and Day 11 post-infection (as a wound healing score).
# In this example, the mice used were 7-week-old female C57BL/6 mice weighing between 20 and 22 g from Janvier Labs, Le Genest St Isle, 53941 St Berthevin, France. The number of mice used was 5 per condition tested.
# The concentration of S. aureus was adjusted in PBS to give a concentration of 10^6 CFU in 10 μL (10^8 CFU/mL). The mice, shaved on their backs, were anaesthetized with isoflurane gas and then 4 incisions were made on each side of the spine, defining 2 areas. In each mouse, only one of the areas was infected by subcutaneous injection of 10 μL of S. aureus solution, with the contralateral area serving as the uninfected control.
# To test the effect of cloxacillin, 3 groups of mice received, 30 minutes pre-infection, a “preventive” treatment of 5 mg/kg cloxacillin (for mice subsequently receiving cloxacillin at 3 mg/kg) or 30 mg/kg cloxacillin (for mice subsequently receiving cloxacillin at 15 mg/kg) or sterile saline intraperitoneally. These doses were determined in an in-house PK/PD study.
# The mice were then treated every two hours after the first preventive treatment for 10 hours with cloxacillin at 3 mg/kg or 15 mg/kg or saline. These doses were pre-determined to simulate blood levels between the planktonic MIC and the biofilm MIC of strain S14.
# Three groups of mice were used, a first group being sacrificed at t+12 h after infection to measure the bacterial load. A second group was treated identically and sacrificed 5 days after infection and a third group, treated identically, was sacrificed 11 days after infection. Each day, a healing score is established on the animals, and on the sacrificed animals, a count of the bacteria installed is made (at D5 and D11). The score is established as follows, assigning a value between 0 and 3.
# The skin at the wounds is cut, rinsed in PBS to remove non-adhered bacteria and then the tissue is homogenized in Precellys tubes using glass beads. The resulting homogenate was diluted serially, and different dilutions were spread on TSA media plates and cultured overnight at 37° C. Colonies (CFU) were quantified for each dilution and the bacterial load at the wound site was determined.
# [2] = test system: clinical strains of Staphylococcus aureus; test: Antibiofilmogram / BioFilm Ring Test: biofilm minimum inhibitory concentration (MICb); assay type: cell-based; conditions: for MIC: Staphylococcus aureus; for MIC / MIC b: 4 h, BHI medium
# Procedure: To determine and measure the effect of cloxacillin on biofilm formation, specifically bacterial adhesion, the first step in biofilm formation, Staphylococcus aureus strains S14 and S39 were incubated in the wells of a 96-well microplate in the presence of varying concentrations of cloxacillin. The concentrations tested ranged from 0.25 μg/mL to 32 μg/mL cloxacillin. This test is called, by BioFilm Control, an Antibiofilmogram®. The inoculum of bacteria was 4·10^6 bacteria/mL, in 200 μL brain heart infusion (BHI) medium, in the presence of magnetic microbeads (Toner 4, product code TON004) at a concentration of 2 μL per 200 μL, i.e. 10 μL/mL).
# The microplate was incubated for 4 hat 37° C., then covered with 120 μL of contrast liquid (Contrast liquid; product code LIC001) and placed for 1 minute on a magnet block (product code BKTMB) designed so that each mini-magnet is centered with respect to the 96 wells. The microplate was then placed on a scanner and the image was acquired and analyzed by the BFCE3 software which quantifies the aggregation of the magnetic microbeads in the center of the wells and provides a biofilm formation index (BFI) value. A BFI value of 20, or close to 20 corresponds to maximum aggregation, therefore no biofilm formation, and therefore cloxacillin anti-adhesion efficacy. […] All intermediate values, allowing a quantitative measurement of the efficacy of cloxacillin are possible.
# The experimental procedure and protocol were as described above.
# The measurement of the MICb (determination of the biofilm minimum inhibitory concentration), using the BioFilm Ring ^Test® was performed in BHI medium. The conversion in mg/kg. The results are summarized in Table 1 according to the strains tested.
# [3] = test system: Staphylococcus aureus strains S14 and S39; test: MIC of cloxacillin (medium not stated); assay type: cell-based; conditions: for MIC: Staphylococcus aureus
# Procedure: The determination of each minimum inhibitory concentration (MIC) of cloxacillin was measured conventionally by measuring the growth of each strain in 96-well microplates in the presence of concentrations of antibiotic by absorbance.
compound,measurement,setting,value
Cc1onc(-c2ccccc2Cl)c1C(=O)N[C@@H]1C(=O)N2[C@@H]1SC(C)(C)[C@@H]2C(=O)O [cloxacillin],wound-healing score,"[1]; infected wounds, strain S14, MIC dose (3 mg/kg)",absence of cloxacillin effect on wound healing
same,wound-healing score,"[1]; infected wounds, strain S14, MICb dose (15 mg/kg), up to day 6",decreases more rapidly
same,decrease of bacterial load at the wound site vs control,"[1]; strain S14, MICb dose (15 mg/kg), 12 h post-infection",~3 logio
same,wound-healing score,[1]; uninfected wounds,does not have a per se effect on wound healing
same,MIC,[2]; strain S02,2 µg/mL
same,MIC,[2]; strain S04,4 µg/mL
same,MIC,[2]; strain S08,2 µg/mL
same,MIC,[2]; strain S11,4 µg/mL
same,MIC,[2]; strain S14,2 µg/mL
same,MIC,[2]; strain S16,4 µg/mL
same,MIC,[2]; strain S19,2 µg/mL
same,MIC,[2]; strain S21,4 µg/mL
same,MIC,[2]; strain S22,4 µg/mL
same,MIC,[2]; strain S26,4 µg/mL
same,MIC,[2]; strain S27,4 µg/mL
same,MIC,[2]; strain S31,4 µg/mL
same,MIC,[2]; strain S34,8 µg/mL
same,MIC,[2]; strain S38,16 µg/mL
same,MIC,[2]; strain S39,8 µg/mL
same,MIC,[2]; strain S40,4 µg/mL
same,MIC,[2]; strain S43,4 µg/mL
same,MIC,[2]; strain S44,4 µg/mL
same,MIC,[2]; strain S46,2 µg/mL
same,MIC,[2]; strain S47,2 µg/mL
same,MIC,[2]; strain S51,4 µg/mL
same,MIC,[2]; strain S58,16 µg/mL
same,MIC,[2]; strain S62,8 µg/mL
same,MIC,[2]; strain S63,8 µg/mL
same,MIC,[2]; strain S74,4 µg/mL
same,MIC,[2]; strain S83,16 µg/mL
same,mean MICb,"[2]; panel of 26 strains, standard deviation 4.2 μg/mL",5.5 µg/mL
same,MIC b,[2]; strain S02,2 µg/mL
same,MIC b,[2]; strain S14,2 µg/mL
same,MIC b,[2]; strain S38,16 µg/mL
same,MIC b,[2]; strain S39,6 µg/mL and 4 to 6 µg/mL and 4 µg/mL
same,MIC b,[2]; strain S58,16 µg/mL
same,MIC b,[2]; strain S83,16 µg/mL
same,MIC,"[3]; strain S14, read-out: minimum inhibitory concentration (MIC)",0.25 µg/mL
same,MIC,"[3]; strain S39, read-out: minimum inhibitory concentration (MIC)",0.125 µg/mL
same,minimum inhibitory concentration (MIC),[3]; strain S14,0.125 µg/mL
same,minimum inhibitory concentration (MIC),[3]; strain S39,0.25 µg/mL

# Source: patent publication US20200237731A1, “USE OF CLOXACILLIN TO INHIBIT/PREVENT BIOFILM FORMATION” (priority 2017, published 2020)
